This data set in a line: physchem. The conditions noted are these: pH 7.4 buffer.

Structures are written as SMILES. ≈ marks a conversion by molar mass, not a printed value.

Take `COc1ccc(N(C)C(=O)c2ccc3nc(-c4ccccc4)c(-c4ccccc4)nc3c2)cc1`: the thermodynamic solubility amounted to 0.7 µM (≈ 0.312 µg/mL). `CC1(C)Oc2ncnc(N)c2N=C1c1ccc(C23CCC(C(=O)O)(CC2)CC3)cc1`: the solubility (thermodynamic) was determined as 3.2 µM (≈ 1.3 µg/mL).

On to `CS(=O)(=O)C1(c2cc(N3CCOCC3)nc(-c3cccc4[nH]ccc34)n2)CCOCC1`, for which the thermodynamic solubility was 1.8 µM (≈ 0.797 µg/mL). The value for `CC(=O)Nc1ccc(Br)cc1` was 832 µM (≈ 178 µg/mL); that for `Cc1noc(C)c1CCC1CCN(S(=O)(=O)CC2(N(O)C=O)CCOC(C)(C)C2)CC1` (stereo not given) was 851 µM (≈ 389 µg/mL); that for `COc1ccccc1C[C@@H](C(=O)O)N1CCC(CN2CCC(Oc3ccc(Cl)c(Cl)c3)CC2)CC1` was 263 µM (≈ 137 µg/mL). Regarding `COc1c(C)c2c(c(O)c1C/C=C(\C)CCC(=O)NO)C(=O)OC2` [MYCOPHENOLIC HYDROXAMIC ACID], the solubility (thermodynamic) was 1000 µM (≈ 335 µg/mL). Next, `CCN(C(=O)Cc1ccc(S(C)(=O)=O)cc1)C1CCN(CCC(c2ccccc2)C2CCN(S(=O)(=O)CC)CC2)CC1` (stereo not given): 457 µM (≈ 282 µg/mL). Next, `O=S(=O)(CC(c1ccccc1)N1CCCCC1)c1ccc(Cl)cc1` (stereo not given): 0.9 µM (≈ 0.328 µg/mL); `Cc1c(Cl)c(C(F)(F)F)nn1CC(=O)N1CCN(c2ccc(F)cc2)CC1`: 1.9 µM (≈ 0.769 µg/mL); `OC1CCN(CCOc2n[nH]c3ncnc(Nc4ccc(OCc5cccc(F)c5)c(Cl)c4)c23)CC1`: 4.5 µM (≈ 2.31 µg/mL). The value for `C[C@@H](O)C(=O)N1CC=C(c2c(F)cc(N3C[C@H](COc4ccon4)OC3=O)cc2F)CC1` was 25.1 µM (≈ 11.3 µg/mL); that for `Cc1noc2cc(N3CCN(C(=O)[C@@H]4CCCC[C@H]4C(=O)NC4(C#N)CC4)[C@H](C)C3)ccc12` was 603 µM (≈ 271 µg/mL).

`Nc1ccccc1NC(=O)c1ccc(N2CCN(Cc3ccccc3)CC2)cc1` displayed a solubility (thermodynamic) of 28.2 µM (≈ 10.9 µg/mL). The value for `Cc1ccc(CO)cc1N(C)c1ccnc(Nc2cc(N3CCOCC3)cc(S(C)(=O)=O)c2)n1` was 15.8 µM (≈ 7.64 µg/mL); that for `O=C(N[C@@H](Cc1ccc(OCCc2cccc(NC3CCCC3)n2)cc1)C(=O)O)c1c(Cl)cccc1Cl` was 295 µM (≈ 160 µg/mL).

In turn, `COc1cc2cc(O)nc(C)c2cc1OC` registered a thermodynamic solubility of 209 µM (≈ 45.8 µg/mL).

As to `CCSc1nc2c(N)ncnc2[nH]1`, the solubility (thermodynamic) amounted to 436 µM (≈ 85.2 µg/mL). `O=C(c1nnsc1S(=O)(=O)c1ccc(Cl)cc1)N1CCOCC1` came in with a solubility (thermodynamic) of 17 µM (≈ 6.36 µg/mL).

As to `O=C(c1ccccc1)C1CCN(C(=O)c2ccco2)CC1`, the solubility (thermodynamic) was found to be 427 µM (≈ 121 µg/mL). The value for `CCC(C)(C)NC(=O)Cc1ccc(C)cc1` was 240 µM (≈ 52.6 µg/mL); that for `O=C(Cc1cc(Nc2ncnc3cc(OCCCN4CCC[C@@H]4CO)ccc23)[nH]n1)Nc1cccc(F)c1` was 102 µM (≈ 53.2 µg/mL); that for `CC(C)(C)c1csc(N2CCN(C(=O)[C@@H]3CCCC[C@H]3C(=O)NC3(C#N)CC3)CC2)n1` was 282 µM (≈ 125 µg/mL). The value for `CC(C)(C)CNCCn1c(Sc2nc3cccc(Cl)c3s2)nc2c(N)ncnc21` was 0.5 µM (≈ 0.224 µg/mL); that for `COCCNS(=O)(=O)c1ccc(Nc2nccc(-c3cnc4ccccn34)n2)cc1` was 0.7 µM (≈ 0.297 µg/mL). The value for `CCN(C(=O)Cc1ccc(S(C)(=O)=O)cc1)C1CCN(CCC(c2ccccc2)N2CCN(c3cccc(F)c3)CC2)CC1` (stereo not given) was 144 µM (≈ 89.7 µg/mL); that for `CS(=O)(=O)Nc1cccc(Nc2nccc(Nc3c(Cl)ccc4c3OCO4)n2)c1` was 7.2 µM (≈ 3.12 µg/mL). As for `Cc1ccc(Oc2ccc(Nc3ncnc4cccc(O[C@H](C)C(=O)NCCO)c34)cc2C)cn1`, the thermodynamic solubility was 4.2 µM (≈ 1.99 µg/mL). The compound `COc1cc2c(Nc3ncc(CNS(=O)(=O)c4cccc(F)c4)s3)ncnc2cc1OCCCN1CCC(CO)CC1` came in with a thermodynamic solubility of 302 µM (≈ 186 µg/mL). On to `CCCSc1c(C(=O)NC2CCCCC2)cnn1C`, for which the solubility (thermodynamic) is 1230 µM (≈ 346 µg/mL). The value for `COc1cc2ncc(C#N)c(Nc3ccc(Oc4ccccc4)cc3)c2cc1OC` was 1.4 µM (≈ 0.556 µg/mL).

Consider `CC(C)Oc1cc(OCCN2CCOCC2)cc2ncnc(Nc3c(Cl)ccc4c3OCO4)c12`, for which the thermodynamic solubility is 4.4 µM (≈ 2.14 µg/mL). `Cc1ccc(Oc2ccc(Nc3ncnc4cccc(O[C@@H](C)C(=O)N5CCOCC5)c34)cc2C)cn1` registered a solubility (thermodynamic) of 31.6 µM (≈ 15.8 µg/mL).

As for `CNC(=O)[C@H]1CCCN1Cc1cc2c(Nc3cccc(Cl)c3F)ncnc2cc1OC`, the thermodynamic solubility is 282 µM (≈ 125 µg/mL).

For the compound `Cc1sc(N2CCN(C(=O)[C@@H]3CCCC[C@H]3C(=O)NC3(C#N)CC3)CC2)nc1C(F)(F)F`, the solubility (thermodynamic) is 1070 µM (≈ 503 µg/mL). The value for `C#CCN(Cc1ccc2nc(C)nc(O)c2c1)c1ccc(S(=O)(=O)c2ccccc2)cc1` was 0.1 µM (≈ 0.0444 µg/mL); that for `CC(C)n1c2ccccc2c2c(F)c(NC(=O)N3CCOCC3)c(F)cc21` was 4.6 µM (≈ 1.72 µg/mL). Next, `Cc1ccc2nc(C)c(-c3ccnc(N)n3)n2c1`: 457 µM (≈ 109 µg/mL); `NC(=O)Nc1sc(-c2ccc(OC(F)(F)F)cc2)cc1C(N)=O`: 11 µM (≈ 3.8 µg/mL). Next, `CS(=O)(=O)C1(c2cc(N3CCOCC3)nc(-c3cccc(N)c3)n2)CC1`: 13.2 µM (≈ 4.94 µg/mL). Turning to `N#Cc1ccccc1COc1cc(OCCCN2CCCC2)ccc1C(=O)Nc1ccccc1`, the solubility (thermodynamic) stood at 34.7 µM (≈ 15.8 µg/mL).

`CCOc1cc2ncc(C#N)c(Nc3ccc(F)c(Cl)c3)c2cc1NC(=O)/C=C/CN(C)C` [PELITINIB] showed a solubility (thermodynamic) of 1.5 µM (≈ 0.702 µg/mL). The value for `CNc1nc2ccc(NC(C)=O)cc2s1` was 347 µM (≈ 76.7 µg/mL); that for `c1ccc(Nc2ncnc3ccccc23)cc1` was 132 µM (≈ 29.2 µg/mL); that for `Cc1ccc(Nc2nc(C)nc3c2oc2ccccc23)cc1` was 0.5 µM (≈ 0.145 µg/mL). The value for `COc1cc2c(Nc3cc(CC(=O)Nc4cc(F)cc(F)c4)[nH]n3)ncnc2cc1OCCCN1CCC(CO)CC1` was 214 µM (≈ 124 µg/mL). The compound `COc1cnc(Cl)c(Nc2ncnc3cc(OCCN4CCN(C(C)=O)CC4)cc(OC(C)C)c23)n1` returned a solubility (thermodynamic) of 22.4 µM (≈ 11.6 µg/mL). The compound `CC(=O)N1CCC(NC(=O)c2ccc(Oc3ccc(C#C[C@]4(O)CN5CCC4CC5)cc3)cc2)CC1` came in with a solubility (thermodynamic) of 646 µM (≈ 315 µg/mL). In the case of `NC1(c2ccc(-c3nn4cccc4cc3-c3ccccc3)cc2)CCC1`, the solubility (thermodynamic) turned out to be 26.3 µM (≈ 8.93 µg/mL). `COc1cc2ncnc(Nc3ccc(Oc4ccccc4)cc3)c2cc1OC` gave a thermodynamic solubility of 0.3 µM (≈ 0.112 µg/mL). For the compound `O=C(c1ccc(F)cc1)C1CCN(C(=O)c2cccc(OC(F)(F)F)c2)CC1`, the thermodynamic solubility amounted to 11 µM (≈ 4.35 µg/mL).

Consider `COc1ccc2c(c1)Sc1ccccc1N2`, for which the thermodynamic solubility is 2.4 µM (≈ 0.55 µg/mL).

On to `Cc1cc(C)cc(-c2[nH]c3sc(C(C)(C)C(=O)N4C5CCC4CC5)cc3c2CCN2CCC(N3CCOCC3)CC2)c1`, for which the thermodynamic solubility stood at 7.2 µM (≈ 4.24 µg/mL).

`CCCCOc1ccc(-c2cc(=O)c3ccccc3[nH]2)cc1` had a solubility (thermodynamic) of 1.6 µM (≈ 0.469 µg/mL). Compound `CNC(=O)CCc1nc(-c2ccc(OC)cc2)no1` displayed a thermodynamic solubility of 912 µM (≈ 238 µg/mL).

`Cc1ccc(NC(=O)c2ccnc(N3CCOCC3)c2)cc1-n1c(C)nc2ccc(N3CCN(C)CC3)cc2c1=O`: the thermodynamic solubility amounted to 851 µM (≈ 471 µg/mL). Consider `COc1cc2ncnc(Nc3ccc(F)c(Cl)c3)c2cc1OCCCn1ccnc1`, for which the thermodynamic solubility amounted to 2.5 µM (≈ 1.07 µg/mL). Next, `Cc1ccc(C(=O)N2CCC(C(=O)c3c(C)cc(C)cc3C)CC2)cc1`: 9.3 µM (≈ 3.25 µg/mL).

Compound `COc1cc(NS(=O)(=O)c2ccc(N)cc2)nc(OC)n1` [SULFADIMETHOXINE] showed a thermodynamic solubility of 1290 µM (≈ 400 µg/mL).

`CC(=O)N1CCN(CCOc2ccc(C3(O)CCN(c4ccc5nnc(C(F)(F)F)n5n4)CC3)cc2)CC1` gave a solubility (thermodynamic) of 170 µM (≈ 90.6 µg/mL).

For the origin of these results see ChEMBL document CHEMBL3301361, “Experimental in vitro DMPK and physicochemical data on a set of publicly disclosed compounds”.
